Read-outs that look alike come from different tables or passages of the source.
Legend:
RKO cells = test: MTT cell viability assay, RKO cells; settings: 48 h; for cell death in RKO compared with RKO-E6 cells: isogenic pair; for EC50: read-out: Cytotoxic Potency (EC50) RKO
[1] = tested on: polyubiquitin conjugates in RKO-E6 cells; test: Accumulation of polyubiquitin in RKO-E6 cells (immunoblot); type: cell-based, human; settings: EC80 or 60 μM, 6-24 h
Description: (§1) A) Accumulation of polyubiquitin. RKO-E6 cells were treated with DMSO vehicle for 24 h, 37° C., or with the concentrations of test compounds that gave 80% cell death (as determined by cell viability assay at 48 h) for 6, 12, or 24 h, 37° C. […] Schematic depicting p53 degradation via the proteasome pathway in RKO cells versus RKO-E6 cells. The activity of the HPV E6 oncoprotein hastens p53 degradation in RKO-E6 cells. ii. RKO and RKO-E6 cells were treated with vehicle, etoposide (50 μM), MG115 (20 μM), Δ12-PGJ2 (60 μM), NSC-302979 (20 μM, DBA (20 μM), curcumin (60 μM), PGB1 (60 μM), NSC-156236, (60 XM)or DPTP 60 μM for 6 h, 37° C. Lysates were fractionated by SDS-PAGE and their p53 content determined immunochemically. iii. p53 levels were measured by densitometry and the ratio of p53 protein in RKO-E6 cells/RKO cells calculated.
(§2) The medium was removed and cells lysed in 50 mM Tris, pH 7.4, 100 mM NaCl, 2 mM EDTA with 0.1% SDS, 0.1% deoxycholate, 1× complete protease inhibitor mixture. Protein concentration was measured by the Bradford method. Equal portions of the total cell lysate were fractionated from each sample (12.5 μg of protein) by SDS-PAGE. Proteins were transferred to poly(vinylidene difluoride) blocked with 5% (w/v) nonfat dry milk in Trisbuffered saline [20 mM Tris-HCl, pH 7.5, 100 mM sodium chloride, 0.1% (v/v) Tween 20]. Proteins were detected immunochemically by using primary antibodies directed against p53 (1:4000) or ubiquitin (1:1000), followed by horseradish peroxidase-conjugated secondary antibodies (1:4000). Antigen-antibody complexes were detected with enhanced chemiluminescence reagents. Gels were scanned and quantified intensities using Kodak 1D Image Analysis Software.

[2] = tested on: cell lines with Wild type p53; settings: cited from earlier work
p53 = p53 accumulation, ratio RKO-E6 cells/RKO cells (immunoblot, densitometry); type: cell-based, human; settings: 6 h; etoposide 50 μM, MG115, NSC-302979, DBA 20 μM, others 60 μM
Description: as §1, §2

[3] = tested on: cell lines with mutant/deleted p53; settings: mean of 41-42 cell lines with mutant/deleted p53, cited from earlier work
RKO-E6 cells = test: MTT cell viability assay, RKO-E6 cells; settings: for EC50: read-out: Cytotoxic Potency (EC50) RKO-E6
HCT 116 +/+ cells = test: MTT cell viability assay, HCT 116 p53 +/+ cells; settings: for cell death in HCT 116 +/+ compared with HCT 116 −/− cells: isogenic pair; for EC50: read-out: Cytotoxic Potency (EC50) HCT +/+
ubiquitin isopeptidases [4] = test: Ubiquitin isopeptidase activity, z-LRGG-AMC substrate, lysates of treated RKO and HCT 116 cells; type: cell-based, human; settings: cells treated 6, 20 or 60 μM, 12 h
Description: RKO (upper) and HCT 116 ^+/+ cells (lower) were treated with DMSO vehicle, 6, 20, or 60 μM of Δ12-PGJ2, DBA, NSC-302979, or curcumin, 60 μM PGB1, 60 μM NSC-156236, or 60 μM DPTP for 12 h at 37° C. Cell lysates (0.5 mg/mL) from each treatment were incubated with the isopeptidase substrate, z-LRGG-AMC, for 3 h, 37° C. The amount of AMC cleaved by isopeptidase was determined fluorometrically, as described in Materials and Methods.
The second assay used a fluorescent tetrapeptide, z-LRGG-AMC, as a substrate that mimics the carboxy-terminus of ubiquitin. Isopeptidase activity hydrolyzes the bond between the c-terminal glycine and the fluorophore. This tetrapeptide also undergoes slow proteolysis by the catalytic subunit of the proteasome. To minimize this background rate of proteolysis cell lysates were incubated with 30 μM MG115 for 30 minutes at 4° C., prior to substrate incubation (>90% proteasome inhibition). Cells were teeated as above, lysed in 250 μL of lysis buffer per sample, and adjusted protein concentration to 0.5 mg/mL prior to incubation with MG115. Next, z-LRGG-AMC substrate was added and fluorescence was quantified of the AMC moiety cleaved by isopeptidase action.

HCT 116 −/− cells = test: MTT cell viability assay, HCT 116 p53 −/− cells; settings: read-out: Cytotoxic Potency (EC50) HCT −/−
Description: Cell viability was measured with MTT reagent as described in materials and methods.
Cell viability was detected by the MTT assay. Briefly, 1×10^5 cells were incubated per well of a sterile, 96-well assay plate with 0-60 μM of test compounds for 48 hours. MTT reagent was added to each well, final concentration of 0.5 mg/mL, and incubated for an additional 3 hours. The media was aspirated and remaining MTT reagent from each well and added 100 μL of HCl:isopropanol (1:24). The absorbance of each sample was measured at 405 nm.

ubiquitin isopeptidases [5] = test: Ubiquitin isopeptidase activity, Ub-PEST substrate, lysates of treated RKO and HCT 116 cells; type: cell-based, human; settings: cells treated 6, 20 or 60 μM, 12 h
Description: A) Inhibition of isopeptidase proteolysis of Ub-PEST substrate. RKO and HCT 116 cells were treated with DMSO vehicle, 6, 20, or 60 μM of Δ12-PGJ2, DBA, NSC-302979, or curcumin, 60 μM PGB1, 60 μM NSC-156236, or 60 μM DPTP for 12 h, 37° C. Cell lysates from each treatment were incubated with Ub-PEST, as described in materials and methods. Samples were fractionated by SDS-PAGE and proteins detected with ubiquitin epitopes immunochemically (HCT 116 ^+/+ western blot shown as example of raw data). […] B) Inhibition of isopeptidase activity by test panel compounds. Isopeptidase activity was determined by measuring via densitometry, the amount of Ub generated by isopeptidase cleavage of Ub-PEST. Bar graph patterns are DMSO vehicle (black), Δ12-PGJ2 (hatched), DBA (horizontal lines), NSC-302979 (white), PGB1 (diagonally downward right lines), and NSC-156236 (diagonally downward left lines). The amount of Ub generated in the vehicle treated sample (panel A, lane 2) is arbitrarily designated 100%.
Cellular isopeptidase enzymatic activity was measured with two assays that used different substrates. In one assay ubiquitin-PEST (Ub-PEST) was used, a full-length ubiquitin molecule with an 18 amino acid c-terminal peptide extension (total mass=10.5 kDa). Ubiquitin isopeptidases specifically cleave the 18 amino acid peptide extension, releasing full-length ubiquitin (8.5 kDa).
Briefly, 6×10^5 cells were incubated with 0-60 μM of test compounds for 12 hrs. Cells were lysed in 50 μL of 25 mM HEPES, 5 mM EDTA, 0.1% CHAPS, 5 mM ATP, pH 7.5. The protein concentration of each sample was adjusted to 0.3 mg/mL and incubated with 50 μg/mL Ub-PEST for 45 minutes at 25° C. Under these conditions, Ub-PEST hydrolysis occurs at a linear rate. 20 μL samples were mixed with 20 μL 2× Laemmli buffer, boiled briefly, and fractionated by SDSPAGE. Isopeptidase activity was monitored by determining the amount of product (8.5 kDa ubiquitin) formation.

ubiquitin isopeptidases [6] = test: In vitro isopeptidase activity in HCT 116 lysates, Ub-PEST; type: biochemical, human; settings: HCT 116 lysates, 45 min
Description: Isopeptidase Assay. It was hypothesized that the punaglandins would inhibit ubiquitin-isopeptidase activity of the proteasome pathway as does the prostaglandin, Δ^12-PGJ2 (1), but with greater potency because of the chlorinated C-10. To validate this theory, cellular isopeptidase enzymatic activity was measured in vitro after treatment with individual punaglandins, PNG 2 (6), PNG 3 (7), and Z-PNG 4 (9) and in vivo after individual treatment with PNG 4 (8) and PNG 6 (10). This activity was determined utilizing the simple isopeptidase substrate, ubiquitin-PEST (Ub-PEST), a full/length ubiquitin (Ub) molecule fused with an 18-amino acid C-terminal peptide extension that most isopeptidases use as a substrate. The polypeptide extension contains regions rich in Pro (P), Glu (E), Ser (S), and Thr (T) residues called PEST motifs that are responsible for rapid degradation of these and other unstable proteins. Ub isopeptidases specifically cleave this peptide extension, yielding free, full-length Ub. Both the fused Ub-PEST (10.5 kDa) and the cleaved, free Ub (8.5 kDa) can be observed via immunochemical detection.
In Vitro Isopeptidase Activity. PNG 2 (6), PNG 3 (7), and Z-PNG 4 (9) were initially analyzed for isopeptidase activity in vitro in HCT 116 lysates. Cells were lysed with isopeptidase activity buffer and protein concentration adjusted to 0.3 mg/mL per sample. Each sample was subsequently incubated with 2 μM, 6 μM, 20 μM, 60 μM, or 200 μM of PNG 2 (6), PNG 3 (7), Z-PNG 4 (9), Δ^12-PGJ2 (1), and PGA1 (2) in addition to 50 μg/ml of Ub-PEST. Negative control cells were treated with vehicle (0.5% DMSO) and equivalent Ub-PEST. […] The amount of fused Ub-PEST and free Ub product was determined by SDS-PAGE fractionation.

HCT 116 (p21^−/−) = test: MTS cytotoxicity, HCT 116 (p21−/−); type: cell-based; settings: Homo sapiens, log of EC50 in μM, 48 h, read-out: Log EC50 +/− Standard Error of Log EC50, HCT 116 (p21−/−) (converted)
Excerpt: (§3) Cytotoxicity in Human Colon Tumor (HCT) Cell Lines. To determine if punaglandins elicit cytotoxicity independently of the tumor-suppressor p53, as do other dienone prostaglandins, several cytotoxicity assays were employed. First, cell death effects of all isolated punaglandins were investigated in pairs of isogenic colon cancer cell lines, the HCT 116^+/+ competent cell line and HCT 116^−/− null cell lines. HCT 116^+/+ cells are homozygous for p53^+/+ and p21^+/+; where as, HCT 116^−/− cells lack both alleles for p53 (p53^−/−) or p21 (p21^−/−).
(§4) Each cell line was seeded simultaneously in 96-well plates and incubated for 24 h before treatment with individual punaglandins at various concentrations for 48 additional h. Cytotoxicity was determined using MTS and absorbances were recorded at 490 nm. Half maximal effective concentrations (EC50) and Log EC50s were calculated from a concentration-response curve generated using GraphPad Prism (Table 1).

HCT 116 (p21 wt) = test: MTS cytotoxicity, HCT 116 (p21 wt); type: cell-based; settings: Homo sapiens, log of EC50 in μM, 48 h, read-out: Log EC50 +/− Standard Error of Log EC50, HCT 116 (p21 wt) (converted)
Excerpt: as §3, §4

HCT 116 (p53 wt) = test: MTS cytotoxicity, HCT 116 (p53 wt); type: cell-based; settings: Homo sapiens, 48 h
Excerpt: as §3, §4

HCT 116 (p53^−/−) = test: MTS cytotoxicity, HCT 116 (p53−/−); type: cell-based; settings: Homo sapiens, log of EC50 in μM, 48 h, read-out: Log EC50 +/− Standard Error of Log EC50, HCT 116 (p53−/−) (converted)
Excerpt: as §3, §4

Which results are given for `COc1cc(/C=C/C(=O)CC(=O)/C=C/c2ccc(O)c(OC)c2)ccc1O` [Curcumin, curcumin]?
cell death in RKO compared with RKO-E6 cells (RKO cells; MTT): caused cell death with equal potency and efficacy; EC50 (RKO cells; Homo sapiens, RKO): 12.5 ± 5.9 µM; cellular accumulation of polyubiquitin conjugates [1]: protein species with polyubiquitin conjugation accumulated in cells; p53 dependence in NCI 60 cell line cancer screening data ([2]; analysis according to O'Connor et al., 1997): act independently of p53; ratio of p53 protein [RKO-E6 cells/RKO cells] (p53): approached unity; CC50 ([3]; read-out: Mutant p53 Mean LC50): 68 µM; EC50 (RKO-E6 cells; Homo sapiens, RKOE6, 48 h): 14.9 ± 8.5 µM; EC80, concentration that gave 80% cell death (RKO-E6 cells; cell viability assay at 48 h, RKO-E6 cells): 17 µM; cell death in HCT 116 +/+ compared with HCT 116 −/− cells (HCT 116 +/+ cells; 48 h, MTT): caused cell death with equal potency; EC50 (HCT 116 +/+ cells; Homo sapiens, HCT-116, 48 h): 9.7 ± 1.1 µM; inhibition of z-LRGG-AMC hydrolysis by ubiquitin isopeptidases (ubiquitin isopeptidases [4]): inhibited ubiquitin isopeptidase activity; EC50 (HCT 116 −/− cells; Homo sapiens, HCT-116, 48 h): 8.6 ± 1.3 µM; inhibition of isopeptidase cleavage of Ub-PEST (ubiquitin isopeptidases [5]): inhibited isopeptidase activity in a concentration dependent manner

Which results are given for `CC1=CC(=O)C2=C(C)CCC3C(C)C(=O)OC3C12` (stereo not drawn) [NSC-156236, achillin]?
cell death in RKO compared with RKO-E6 cells (RKO cells; MTT): did not cause significant cell death; EC50 (RKO cells; MTT): > 60 µM; cellular accumulation of polyubiquitin conjugates [1]: did not cause appreciable cellular accumulation of ubiquitin conjugates; cytotoxic activity in NCI 60 cell line cancer screening data [2]: no appreciable cytotoxic activity; Wild Type p53 Mean LC50 ([2]; mean of 18 cell lines with wild type p53): Inactive; ratio of p53 protein [RKO-E6 cells/RKO cells] (p53): significantly less than unity; Mutant p53 Mean LC50 [3]: Inactive; EC50 (RKO-E6 cells; 48 h, MTT): > 60 µM; cell death in HCT 116 +/+ compared with HCT 116 −/− cells (HCT 116 +/+ cells; 48 h, MTT): did not cause significant cell death; EC50 (HCT 116 +/+ cells; 48 h, MTT): > 60 µM; inhibition of z-LRGG-AMC hydrolysis by ubiquitin isopeptidases (ubiquitin isopeptidases [4]): did not; EC50 (HCT 116 −/− cells; 48 h, MTT): > 60 µM; inhibition of isopeptidase cleavage of Ub-PEST (ubiquitin isopeptidases [5]): did not inhibit isopeptidase activity

For `CCCCC/C=C\C[C@@]1(O)C=C(Cl)C(=O)/C1=C\[C@H](OC(C)=O)[C@H](CCCC(=O)OC)OC(C)=O` [Z-PNG 4], which “concentration at which inhibition of Ub-PEST degradation is initially observed” value (ubiquitin isopeptidases [6]) is on record?
The value was 20 µM.

What about the “concentration of complete (total) inhibition of Ub-PEST degradation” value (ubiquitin isopeptidases [6]) of the same compound?
Its value is 60 µM.

And the EC50 (HCT 116 (p21^−/−))?
Its EC50 is 0.0324 µM.

What about the EC50 (HCT 116 (p21 wt)) of the same compound?
The EC50 was 0.0295 µM.

What about the EC50 (HCT 116 (p53 wt); read-out: EC50, cytotoxicity in HCT 116 cell lines) of the same compound?
The EC50 was 0.03 µM.

What about the EC50 (HCT 116 (p53 wt); log of EC50 in μM, read-out: Log EC50 +/− Standard Error of Log EC50, HCT 116 (p53 wt) (converted)) of the same compound?
Its EC50 is 0.0316 µM.

And the EC50 (HCT 116 (p53^−/−))?
Its EC50 is 0.0269 µM.

Source: patent US20060106099A1, “Novel inhibitors of ubiquitin isopeptidases” (priority 2002, published 2006)
